Results published in patent publication US8293769B2, “CSF-1R inhibitors, compositions, and methods of use” (Novartis AG, priority 2008, dated 2012).

Legend:
[1] = target: T1, cytoplasmic domain of the human CSF-1R (Homo sapiens, UniProt P07333); experiment: In vitro kinase assay for CSF-1R (AlphaScreen); type: biochemical; details: tested at about 1 μM; read-out: CSF1RK 1 percent inhibition
T1 construct: Recombinant protein corresponding to the cytoplasmic domain of the human CSF-1R; purchased Invitrogen Corporation, Carlsbad, Calif; PV3249
T1 sequence (P07333 539-972 limits assumed): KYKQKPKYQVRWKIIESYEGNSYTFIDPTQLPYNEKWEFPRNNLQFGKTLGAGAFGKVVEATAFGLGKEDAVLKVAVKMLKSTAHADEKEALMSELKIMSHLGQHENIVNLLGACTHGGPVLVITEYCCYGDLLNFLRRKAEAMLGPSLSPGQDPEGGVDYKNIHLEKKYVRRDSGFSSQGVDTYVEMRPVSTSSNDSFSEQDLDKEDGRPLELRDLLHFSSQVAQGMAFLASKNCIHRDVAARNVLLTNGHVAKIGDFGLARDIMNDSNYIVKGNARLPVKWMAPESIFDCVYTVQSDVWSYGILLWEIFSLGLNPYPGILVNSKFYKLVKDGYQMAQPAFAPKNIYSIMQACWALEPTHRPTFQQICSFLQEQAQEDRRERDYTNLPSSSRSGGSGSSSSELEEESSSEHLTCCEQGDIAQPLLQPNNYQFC
Protocol: The kinase activity of various protein tyrosine kinases can be measured by providing ATP and a suitable peptide or protein tyrosine-containing substrate, and assaying the transfer of phosphate moiety to the tyrosine residue. Recombinant protein corresponding to the cytoplasmic domain of the human CSF-1R was purchased from Invitrogen Corporation, Carlsbad, Calif. U.S.A. (#PV3249). For each assay, test compounds were serially diluted, starting at 25 μM with 3 fold dilutions, in DMSO in 384 well plates then mixed with an appropriate kinase reaction buffer consisting of 50 mM Hepes, 5 mM MgCl2, 10 mM MnCl2, 0.1% BSA, pH 7.5, 1.0 mM dithiothreitol, 0.01% Tween 80 plus 1 μM ATP. Kinase protein and an appropriate biotinylated peptide substrate at 50 nM were added to give a final volume of 20 μL, reactions were incubated for 2 hours at room temperature and stopped by the addition of 10 μL of 45 mM EDTA, 50 mM Hepes pH 7.5. Added to the stopped reaction mix was 30 μL of PT66 Alphascreen beads (Perkin Elmer, Boston, Mass., U.S.A.). The reaction was incubated overnight and read on the Envision (Perkin Elmer). Phosphorylated peptide product was measured with the AlphaScreen system (Perkin Elmer) using acceptor beads coated with anti-phosphotyrosine antibody PT66 and donor beads coated with streptavidin that emit a fluorescent signal at the 520-620 nm emission wave length if in close proximity. The concentration of each compound for 50% inhibition (IC50) was calculated by non-linear regression using XL Fit data analysis software.
CSF-1R kinase was assayed in 50 mM Hepes pH 7.0, 5 mM MgCl2, 10 mM MnCl2, 1 mM DTT, 1 mg/mL BSA, 1.0 μM ATP, and 0.05 μM biotin-GGGGRPRAATF-NH2 (SEQ ID NO:1) peptide substrate. CSF-1R kinase was added at final concentration of 4 nM.

[2] = target: T2, PDGFRb (Homo sapiens, UniProt P09619); experiment: PDGFRb kinase in vitro biochemical assay (alphascreen); details: tested at about 1 μM; read-out: PDGF RK BETA percent inhibition
T2 construct: The kinase domain of PDGFRβ was assayed in 50 mM Hepes; purchased Invitrogen P3082
T2 sequence (P09619 600-962 limits assumed): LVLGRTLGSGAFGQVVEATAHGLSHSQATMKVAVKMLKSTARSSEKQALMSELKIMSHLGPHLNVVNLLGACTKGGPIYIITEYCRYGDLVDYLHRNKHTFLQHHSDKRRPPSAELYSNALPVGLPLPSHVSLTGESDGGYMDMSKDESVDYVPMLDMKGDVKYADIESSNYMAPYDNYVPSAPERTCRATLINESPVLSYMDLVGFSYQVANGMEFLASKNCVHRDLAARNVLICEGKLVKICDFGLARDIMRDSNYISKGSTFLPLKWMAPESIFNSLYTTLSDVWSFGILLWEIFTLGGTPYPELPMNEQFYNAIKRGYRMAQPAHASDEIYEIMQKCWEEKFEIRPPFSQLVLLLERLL
Protocol: (§1) The IC50 values for the inhibition of RTKs were determined in the alphascreen format measuring the inhibition by compound of phosphate transfer to a substrate by the respective enzyme. Briefly, the respective RTK domain purchased as human recombinant protein (cKIT Upstate #14-559, PDGFRb Invitrogen #P3082) were incubated with serial dilutions of compound in the presence of substrate and ATP concentrations within 3 times the Km of the enzyme.
(§2) The kinase domain of cKIT was assayed in 50 mM Hepes, pH=7.5, 5 mM MgCl2, 10 mM MnCl2, 1 mM DTT, 0.1% BSA with 0.06 uM biotinylated peptide substrate (GGLFDDPSYVNVQNL-NH2) and 15 uM ATP (ATP KM apparent=15 uM). The kinase domain of PDGFRβ was assayed in 50 mM Hepes, pH=7.5, 20 mM MgCl2, 1 mM DTT, 0.1% BSA with 0.1 uM biotinylated peptide substrate (GGLFDDPSYVNVQNL-NH2) and 10 uM ATP (ATP KM apparent=25 uM). Reactions were incubated at room temperature for 3 to 4 hr and stopped with buffer (20 mM EDTA, 0.01% Tween-20 for both PDGFRb and cKIT). Alphascreen PY20 beads were added to the stopped cKIT reactions and PY20 Ab/Protein A Alphascreen beads were added to the PDGFRβ stopped reactions. Both reactions were incubated overnight and read on the Alphascreen reader. The concentration of compound for 50% inhibition (IC50) was calculated employing non-linear regression using XL-Fit data analysis software. As a control compound, staurosporine is run in every assay and a Z′>0.5 is required to validate results.

[3] = target: T3, cKIT (Homo sapiens, UniProt P10721); experiment: cKIT kinase in vitro biochemical assay (alphascreen); details: tested at about 1 μM; read-out: CKIT percent inhibition
T3 construct: The kinase domain of cKIT was assayed in 50 mM Hepes; purchased Upstate 14-559
T3 sequence (P10721 589-937 limits assumed): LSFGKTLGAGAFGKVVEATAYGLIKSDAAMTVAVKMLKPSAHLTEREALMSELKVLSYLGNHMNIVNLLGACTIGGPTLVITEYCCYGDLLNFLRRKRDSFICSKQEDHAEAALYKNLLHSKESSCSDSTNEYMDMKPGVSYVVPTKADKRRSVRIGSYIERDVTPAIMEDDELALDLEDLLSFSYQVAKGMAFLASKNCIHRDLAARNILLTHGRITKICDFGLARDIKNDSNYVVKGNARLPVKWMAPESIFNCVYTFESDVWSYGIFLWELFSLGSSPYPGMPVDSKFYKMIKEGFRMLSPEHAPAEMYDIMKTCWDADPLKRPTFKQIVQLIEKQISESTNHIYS
Protocol: as §1, §2

Compound	inhibition at 1 µM [1] [%]	inhibition at 1 µM [2] [%]	inhibition at 1 µM [3] [%]
Clc1cc(Oc2ccc3nc(NCC4CCCCC4)sc3c2)ncn1 [Compound 2, 6-(6-chloropyrimidin-4-yloxy)-N-(cyclohexylmethyl)benzo[d]thiazol-2-amine]	78	6	11
Nc1cc(Oc2ccc3nc(NCC4CCCCC4)sc3c2)nc(N)n1 [Compound 3, 6-(2-(cyclohexylmethylamino)benzo [d]thiazol-6-yloxy) pyrimidine-2,4-diamine]	19	0	23
Clc1nccc(Oc2ccc3nc(NCC4CCCCC4)sc3c2)n1 [Compound 4, 6-(2-chloropyrimidin-4-yloxy)-N-(cyclohexylmethyl) benzo[d]thiazol-2-amine]	73	0	23
c1nc(Oc2ccc3nc(NCC4CCCCC4)sc3c2)cc(N2CCOCC2)n1 [Compound 11, N-(cyclohexylmethyl)-6-(6-morpholinopyrimidin-4-yloxy)benzo[d]thiazol-2-amine]	68	13	19
CC(=O)NCCNc1cc(Oc2ccc3nc(NCC4CCCCC4)sc3c2)ncn1 [Compound 12, N-(2-(6-(2-(cyclohexylmethylamino)benzo[d]thiazol-6-yloxy)pyrimidin-4-ylamino)ethyl) acetamide]	80	37	13
CC(=O)NCCNc1cc(Oc2ccc3nc(NCC4CCCCC4)sc3c2)nc(N)n1 [Compound 14, N-(2-(2-amino-6-(2-(cyclohexyl-methylamino)benzo[d]thiazol-6-yloxy)pyrimidin-4-ylamino)ethyl)acetamide]	26	0	23
c1cc(Oc2ccc3nc(NCC4CCCCC4)sc3c2)nc(N2CCOCC2)n1 [Compound 15, N-(cyclohexylmethyl)-6-(2-morpholinopyrimidin-4-yloxy)benzo[d]thiazol-2-amine]	94	16	26
CC(=O)NCCNc1nccc(Oc2ccc3nc(NCC4CCCCC4)sc3c2)n1 [Compound 16, N-(2-(4-(2-(cyclohexylmethylamino)benzo[d]thiazol-6-yloxy)pyrimidin-2-ylamino)ethyl) acetamide]	89	35	22
C[C@H](Nc1nc2ccc(Oc3cc(Cl)ncn3)cc2s1)C1CCCCC1 [Compound 35, (S)-6-(6-chloropyrimidin-4-yloxy)-N-(1-cyclohexylethyl) benzo[d]thiazol-2-amine]	79	2	20
C[C@H](Nc1nc2ccc(Oc3ccnc(Cl)n3)cc2s1)C1CCCCC1 [Compound 36, (S)-6-(2-chloropyrimidin-4-yloxy)-N-(1-cyclohexylethyl)benzo[d]thiazol-2-amine]	59	0	19
c1nc(Oc2ccc3nc(NCC4CCCCC4)sc3c2)c2sccc2n1 [Compound 38, N-(cyclohexylmethyl)-6-(thieno[3,2-d]pyrimidin-4-yloxy) benzo[d]thiazol-2-amine]	100	83	99
C[C@H](Nc1nc2ccc(Oc3cc(-n4cncn4)ccn3)cc2s1)C1CCCCC1 [Compound 39, (S)-6-(4-(1H-1,2,4-triazol-1-yl)pyridin-2-yloxy)-N-(1-cyclohexylethyl) benzo[d]thiazol-2-amine]	27	0	33
C[C@H](Nc1nc2ccc(Oc3cncc(-n4cncn4)n3)cc2s1)C1CCCCC1 [Compound 40, (S)-6-(6-(1H-1,2,4-triazol-1-yl)pyrazin-2-yloxy)-N-(1-cyclobexylethyl)benzo[d]thiazol-2-amine]	68	17	32
O[C@@H]1CCCC[C@H]1Nc1nc2ccc(Oc3cc(-n4cncn4)ncn3)cc2s1 [Compound 43, (1R,2R)-2-(6-(6-(1H-1,2,4-triazol-1-yl)pyrimidin-4-yloxy)benzo[d]thiazol-2-ylamino)cyclohexanol]	57	14	15
CNC(=O)c1ccncc1Oc1ccc2nc(NCC3CCCCC3)sc2c1 [Compound 49, 3-(2-(cyclohexylmethylamino)benzo[d]thiazol-6-yloxy)-N-methylisonicotinamide]	95	6	32

Further lines, results first:

inhibition at 1 µM [1] [%]	inhibition at 1 µM [2] [%]	inhibition at 1 µM [3] [%]	Compound
41	0	25	O[C@@H]1CCCC[C@H]1Nc1nc2ccc(Oc3cc(Cl)ncn3)cc2s1 [Compound 5, (1R,2R)-2-(6-(6-chloropyrimidin-4-yloxy)benzo[d]thiazol-2-ylamino) cyclohexanol]
18	0	19	O[C@@H]1CCCC[C@H]1Nc1nc2ccc(Oc3ccnc(Cl)n3)cc2s1 [Compound 6, (1R,2R)-2-(6-(2-chloropyrimidin-4-yloxy)benzo[d]thiazol-2-ylamino) cyclohexanol]
51	10	9	O[C@@H]1CCCC[C@H]1Nc1nc2ccc(Oc3cncc(-n4cncn4)n3)cc2s1 [Compound 42, (1R,2R)-2-(6-(6-(1H-1,2,4-triazol-1-yl)pyrazin-2-yloxy)benzo[d]thiazol-2-ylamino)cyclohexanol]
98	11	32	CNC(=O)c1cncc(Oc2ccc3nc(NCC4CCCCC4)sc3c2)n1 [Compound 50, 6-(2-(cyclohexylmethylamino)benzo [d]thiazol-6-yloxy)-N-methylpyrazine-2-carboxamide]
78	12	33	CNC(=O)c1cncc(Oc2ccc3nc(N[C@@H]4CCCC[C@H]4O)sc3c2)n1 [Compound 52, 6-(2-((1R,2R)-2-hydroxycyclohexylamino)benzo[d]thiazol-6-yloxy)-N-methylpyrazine-2-carboxamide]
87	13	56	CNC(=O)c1ccc(Oc2ccc3nc(N[C@@H]4CCCC[C@H]4O)sc3c2)cn1 [Compound 54, 5-(2-((1R,2R)-2-hydroxycyclohexylamino)benzo[d]thiazol-6-yloxy)-N-methylpicolinamide]
